In patent publication US4282232A, “Nitroimidazole radiosensitizers for hypoxic tumor cells and compositions thereof” (priority 1979, dated 1981):
Like-named read-outs stand apart in the source and are kept apart here.

Experiments:
Redox potential = type: physicochemical
hypoxic tumor cells = details: cited from earlier work; for radiosensitizing activity (in words): in vitro and/or in vivo; for selectivity (tumor cells versus normal tissue cells): DNA incorporating drugs
mice = details: cited from earlier work
mice of strain BDF1 [1] = details: footnote *: P. W. Sheldon, et al, Br. J. Cancer, 35, 795, 800 (1977); 1440 min; cited from earlier work
[2] = system: hypoxic cells (Chinese hamster cells line V-79-753 B); assay: Differential cytotoxicity of hypoxic cells; type: cell-based
Protocol: (§1) Asynchronous monolayer cultures of Chinese hamster cells line V-79-753 B were employed in all the experiments. The monolayers were derived from exponentially-growing cultures. Methods of culturing and handling have been reported earlier by Cooke et al, Rad. Res. 65, 152 (1976). The plated cultures were rendered hypoxic in sealed dural containers capable of holding four petri dishes, by purging with nitrogen (oxygen-free grade) for one hour. Irradiation was carried out by using a Cobalt-60 source at a dose rate of approximately 310 rad/min according to the procedure described previously be Cooke et al, supra. A dose of 1395 rad was given to hypoxic cells in glass petri dishes in the presence of a given drug concentration (2000 cells/dish). Cell survival was estimated from unirradiated hypoxic cells exposed to the same drug concentration. Cultures were incubated for 6 days at 37° C. in an atmosphere of 5% CO2; the resulting colonies were fixed in absolute ethanol, stained with methylene blue and counted.
[…] Drug concentrations between 10 μM were employed.

humans = details: cited from earlier work
[3] = system: Chinese hamster cells line V-79-753 B; assay: Radiosensitization of hypoxic Chinese hamster cells (Cobalt-60 irradiation, enhancement ratio); type: cell-based; details: 1395 rad Cobalt-60
Protocol: as §1

[4] = In vitro cytotoxicity (2 hour exposure); type: cell-based; details: chinese hamster, v-79-753 b cells; for cytotoxicity at 2 h, 1000 µM: at 1mM; for MNTC at 2 h: read-out: In-vitro Cytotoxicity in cells: Nontoxic up to (concentration)
Protocol: as §1
To determine toxicity in vitro, glass petri dishes containing approximately 200 cells/dish were exposed to a range of concentrations of each drug for 2 hours at room temperature (20° C.) in air or in hypoxia. Drug concentrations […] were employed.

mice of strain BDF1 [5] = assay: in vivo; details: intraperitoneal, 24 hours observation
Protocol: (§2) Neurotoxicity in mice was determined using mice of strain BDF1. This was carried out by (1) determining the LD50 of each compound in mice and (2) observing the animals for acute neurotoxic symptoms such as convulsions. The drugs were either solubilized or suspended in normal saline and administered intraperitoneally to groups of 10 mice.

in vivo = details: mouse, in vivo, ip
Protocol: as §2

[6] = Toxicity, general statements of the description
[7] = read-out: In-vitro Cytotoxicity in cells: inhibition

## Cc1ncc([N+](=O)[O-])n1CCO [G, Metronidazole]
Redox potential
  Redox Potential: -0.486 V
Hypoxic tumor cells; as worded, listed as Metronidazole
  radiosensitizing activity (in words): active both in vivo and in vitro
Hypoxic tumor cells; as worded, listed as metronidazole
  radiosensitizing activity (in words): effective in vivo
mice; mouse, in vivo, po
  serious side effects when administered orally: peripheral neuropathy and convulsions in mice
Mice of strain BDF1 [1]
  LD50 in mice: 3500 mg/kg
[2]; exposure time not given
  Differential cytotoxicity of hypoxic cells: yes
humans; in vivo
  central nervous system (CNS) toxicity: limiting factor for their use in humans
[3]
  Radiosensitization (enhancement ratio at 1mM in chinese hamster cells): 1.5

## O=[N+]([O-])c1nc2ccccc2n1CCN1CCCCC1 [B, 1-piperidinoethyl-2-nitrobenzimidazole]
[4]; [7]
  cytotoxicity at 2 h, 1000 µM: 50%
Mice of strain BDF1 [5]
  Convulsions in mice at LD50 doses: Yes
  LD50 in mice: < 1 g

## O=[N+]([O-])c1nc2ccccc2n1CC[N+]1([O-])CCCCC1 [A, 1-(1'-oxido)piperidinoethyl-2-nitrobenzimidazole]
[4]
  MNTC at 2 h: ≥ 10 mM
In vivo
  LD50 at 24 h: ~5000 mg/kg
Mice of strain BDF1 [5]
  Convulsions in mice at LD50 doses: None

## CN(C)CCC(=O)c1ccc([N+](=O)[O-])cc1.Cl [NDPP, p-nitro-3-dimethylamino propiophenone HCl]
Hypoxic tumor cells
  radiosensitizing activity (in words): appeared promising in vitro

## C[N+]1(CCn2ccnc2[N+](=O)[O-])CCCCC1 [E, 1-(1'-methiodide)-piperidinoethyl-2-nitroimidazole]
[6]
  toxicity (in words): more toxic than the parent non-quaternized piperidino compound itself
[4]; at 2mM, read-out: In-vitro Cytotoxicity in cells: inhibition
  cytotoxicity at 2 h, 2000 µM: 30%
In vivo
  LD50 at 24 h: 250 mg/kg
Mice of strain BDF1 [5]
  Convulsions in mice at LD50 doses: yes

## O=[N+]([O-])c1nccn1CCN1CCCCC1 [D, 1-piperidinoethyl-2-nitroimidazole]
[4]; [7]
  cytotoxicity at 2 h, 1000 µM: 70%
In vivo
  LD50 at 24 h: 800 mg/kg
Mice of strain BDF1 [5]
  Convulsions in mice at LD50 doses: yes
[3]
  Radiosensitization (enhancement ratio at 1mM in chinese hamster cells): ~2.1

## O=c1[nH]c(=O)n([C@H]2C[C@H](O)[C@@H](CO)O2)cc1F [FUdR, 5-Fluorodeoxyuridine]
Hypoxic tumor cells
  selectivity (tumor cells versus normal tissue cells): failed precisely because of their poor selectivity problem

## O=[N+]([O-])c1nccn1CC[N+]1([O-])CCCCC1 [C, 1-(1'-oxido)piperidinoethyl-2-nitroimidazole]
Redox potential
  Redox Potential: -0.32 V
[4]
  MNTC at 2 h: ≥ 20 mM
In vivo
  LD50 at 24 h: > 5000 mg/kg
Mice of strain BDF1 [5]
  Convulsions in mice at LD50 doses: None
[2]; up to 4 hours
  Differential cytotoxicity of hypoxic cells: None
[3]
  Radiosensitization (enhancement ratio at 1mM in chinese hamster cells): 2.2

## COCC(O)Cn1ccnc1[N+](=O)[O-] (stereo not drawn) [F, Misonidazole]
Redox potential
  Redox Potential: -0.389 V
Hypoxic tumor cells
  radiosensitizing activity (in words): effective in vivo
mice; oral, mice
  serious side effects when administered orally: peripheral neuropathy and convulsions in mice
[2]; exposure time not given
  Differential cytotoxicity of hypoxic cells: yes
humans; use in humans
  central nervous system (CNS) toxicity: limiting factor for their use in humans

## O=c1[nH]c(=O)n([C@H]2C[C@H](O)[C@@H](CO)O2)cc1Br [BUdR, 5-Bromodeoxyuridine]
Hypoxic tumor cells
  selectivity (tumor cells versus normal tissue cells): failed precisely because of their poor selectivity problem
